Laboratory results published in PMC11221360 (Molecular psychiatry, 2023).

Tests used:
[1] = system: rats; assay: Hotplate analgesia; type: in vivo, rat
[2] = system: rats; assay: Catalepsy score; type: in vivo, rat
[3] = system: rats; assay: Intravenous self-administration; type: in vivo, rat; conditions: for shape of IVSA dose-response / unit dose with peak infusion rates in IVSA dose response: trained rats; for acquisition of IVSA in dose finding experiments: rats, (R)-MTD at 50 μg/kg/infusion, (S)-MTD even at high unit doses
[4] = system: mice; assay: Acute locomotor activity; type: in vivo, mouse; conditions: for most effective dose for locomotor activation (inverted U) / effect on locomotion: sc; for effect on locomotion: after 60 minutes of habituation, (S)-MTD up to 100 mg/kg
[5] = system: mice; assay: Psychomotor sensitization, repeated injections in open-field chambers; type: in vivo, mouse; conditions: for psychomotor sensitization: ip, three days, (R)-MTD 2, 5, 10, (R,S)-MTD 4, 10, 20, (S)-MTD 20, 30, 40 mg/kg
[6] = molecular target: SERT (Homo sapiens, UniProt P31645); assay: Receptor and enzyme competitive screen; type: binding; conditions: 100 nM
[7] = system: extracellular dopamine in rat VTA; assay: In vivo microdialysis, perfusion into VTA, somatodendritic dopamine release; conditions: for effect on extracellular dopamine: local perfusion, (S)-MTD up to 100 μM
[8] = system: NMDARs; conditions: ref [10], cited from earlier work

SERT, sequence (P31645 whole entry, species assumed, the tested form may be a part): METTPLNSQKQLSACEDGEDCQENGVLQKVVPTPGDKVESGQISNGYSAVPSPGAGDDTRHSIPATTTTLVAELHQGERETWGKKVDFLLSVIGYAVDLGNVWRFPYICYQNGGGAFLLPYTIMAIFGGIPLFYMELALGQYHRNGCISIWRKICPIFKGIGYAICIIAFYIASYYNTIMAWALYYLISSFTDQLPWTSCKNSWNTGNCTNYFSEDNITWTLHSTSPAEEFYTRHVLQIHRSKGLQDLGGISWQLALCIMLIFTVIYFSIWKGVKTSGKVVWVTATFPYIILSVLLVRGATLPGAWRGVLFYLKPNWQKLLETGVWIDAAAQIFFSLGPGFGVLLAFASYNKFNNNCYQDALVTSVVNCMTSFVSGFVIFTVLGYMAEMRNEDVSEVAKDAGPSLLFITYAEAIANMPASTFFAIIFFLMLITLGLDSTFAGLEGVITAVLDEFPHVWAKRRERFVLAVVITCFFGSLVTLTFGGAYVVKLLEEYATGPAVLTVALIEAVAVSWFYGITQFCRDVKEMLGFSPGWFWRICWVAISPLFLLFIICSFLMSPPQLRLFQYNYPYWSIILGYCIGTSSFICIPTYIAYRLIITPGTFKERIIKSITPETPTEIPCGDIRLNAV

Compound	hotplate ED50 (%MPE) [1]	hotplate agonist profile [1]	cataleptic ED50 (%MPE) [2]	dose at which maximal cataleptic effects were observed [2]	shape of IVSA dose-response [3]	unit dose with peak infusion rates in IVSA dose response [3]	most effective dose for locomotor activation (inverted U) [4]	effect on locomotion [4]	psychomotor sensitization [5]	acquisition of IVSA in dose finding experiments [3]	effect on extracellular dopamine [7]	also measured
CCC(=O)C(CC(C)N(C)C)(c1ccccc1)c1ccccc1 (racemic) [(R,S)-MTD, (R,S)-methadone]	1.2 mg/kg	full agonistic activity	2.1 mg/kg	10 mg/kg	inverted-U shaped dose-response curve	0.05 mg/kg	10 mg/kg	increased locomotion	failed to show sensitization at any dose			
CCC(=O)C(C[C@@H](C)N(C)C)(c1ccccc1)c1ccccc1 [(R)-MTD]	0.5 mg/kg	full agonistic activity	0.9 mg/kg	3 mg/kg	inverted-U shaped dose-response curve	0.025 mg/kg	3 mg/kg	increased locomotion	produced psychomotor sensitization at 10 mg/kg	readily self-administered	concentration-dependent increase in extracellular dopamine	inhibition of binding at SERT [6]: 68%; maximum consumed at the highest dose in IVSA ([3]; rats exposed to (R)-MTD, dose finding): ~ 2 mg/kg
CCC(=O)C(C[C@H](C)N(C)C)(c1ccccc1)c1ccccc1 [(S)-MTD, (S)-methadone]		full agonistic activity			no evidence of dose response			did not produce any significant locomotor-activating effects	failed to show sensitization at any dose	never acquired IVSA	did not induce any significant effect	catalepsy score agonist profile ([2]; up to 100 mg/kg): partial agonist; IVSA in (R)-MTD-trained rats switched to (S)-MTD ([3]; 500 μg/kg/infusion): reliable IVSA; cumulative dose consumed at the highest dose in IVSA ([3]; (R)-MTD-trained rats switched to (S)-MTD): ~ 30 mg/kg; effect on locomotor-stimulating effect of (R)-MTD (10 mg/kg, sc) ([4]; (S)-MTD 10, 30 mg/kg sc, 15 min before (R)-MTD): dose-dependently counteracted; effect of pretreatment on (R)-MTD-induced (10 mg/kg, ip) sensitization ([5]; (S)-MTD 10 or 30 mg/kg): did not prevent psychomotor sensitization; effect on (R)-MTD (10 μM)-induced dopamine release ([7]; co-perfusion, (S)-MTD 100 μM): completely counteracted; affinity for the MOR, times greater than affinity for the NMDAR [8, 15]: ~ 300 times; affinity at NMDARs [8]: 2.6 to 7.4 µM
